The values that follow are results of earlier work, collected in patent publication US20230172943A1 (Mylan Specialty L.P., priority 2020, published 2023).

Molecules are shown by their SMILES.

For the data set the following is noted: orally delivered, humans.

Consider `Cc1cnc(NC(=O)C2=C(O)c3ccccc3S(=O)(=O)N2C)s1` [meloxicam, 4-hydroxy-2-methyl-N-(5-methyl-2-thiazolyl)-2H-1,2-benzothiazine-3-carboxamide-1,1-dioxide], for which the “Tmax (time to reach maximum concentration)” value is 4 to 6 h and the “time to reach the therapeutic concentration that enables the onset of action” value was 2 to 3 h.
